This note sets out measurements from EP0674636B1, “QUINUCLIDINE DERIVATIVES AS SQUALENE SYNTHASE INHIBITORS” (ZENECA LIMITED, priority 1992, dated 1994).

For assay [1], the system named is de novo hepatic cholesterol synthesis. Kind of assay: Acute rat cholesterol synthesis assay (de novo hepatic cholesterol synthesis from 14C-acetate). Format: in vivo. The following applies: at 50mg/kg; female rats. The procedure: (b) Acute rat cholesterol synthesis assay.
This is an acute in vivo test in the rat to measure de novo hepatic cholesterol synthesis from exogenously administered ^14C-acetate.
Female rats (35 - 55 g) are housed in reverse lighting conditions (red light from 0200h - 1400h) for a period of about 2 weeks prior to test. Animals are allowed free access to chow and drinking water throughout this period. At test, animals should weigh 125 - 150 g.
Test compounds may be administered by oral gavage, dissolved or suspended in 0.5% polysorbate, or by ip or iv dosing. Control animals receive vehicle alone. After 1 hour the rats are injected ip with 25µCi [2-^14C]-acetate (NEN DUPONT. specific activity, 45-60mCi/mmol NEC-085H, or AMERSHAM specific activity, 50-60mCi/mmol CFA 14) in a volume of 0.25 ml saline (100µCi/ml). After a further hour, rats are terminally anaesthetised with halothane and a blood sample obtained from the abdominal vena cava.
1ml of plasma is lyophilised and then saponified in 2ml ethanolic KOH (1 part 33% KOH, 9 parts ethanol) at 75°C for 2 hours. After addition of an equal quantity of water, non-saponifiable lipids are extracted with two 5ml volumes of hexane. The hexane extracts are evaporated to dryness and the residues dissolved in ethanol to determine cholesterol specific radioactivity. ED50 values can be determined in the standard way.

For the next assay, the target named is T1, Squalene synthase (Rattus norvegicus, UniProt Q02769).
T1 construct: from tissue; host or cells: rat liver microsomes
T1 sequence (Q02769 1-416): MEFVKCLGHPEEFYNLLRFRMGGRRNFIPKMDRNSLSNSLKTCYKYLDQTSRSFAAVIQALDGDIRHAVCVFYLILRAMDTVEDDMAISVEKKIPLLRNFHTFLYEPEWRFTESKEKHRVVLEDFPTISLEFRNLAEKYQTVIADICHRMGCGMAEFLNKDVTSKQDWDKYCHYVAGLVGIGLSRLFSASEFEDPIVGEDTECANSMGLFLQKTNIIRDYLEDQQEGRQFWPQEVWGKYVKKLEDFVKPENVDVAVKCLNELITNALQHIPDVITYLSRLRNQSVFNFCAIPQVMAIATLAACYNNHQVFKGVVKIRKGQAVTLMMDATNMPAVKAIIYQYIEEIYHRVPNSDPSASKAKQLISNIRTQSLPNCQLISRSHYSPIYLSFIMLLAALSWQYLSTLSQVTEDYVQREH
Kind of assay: Inhibition of squalene synthase (formation of squalene from tritiated farnesyl pyrophosphate by rat liver microsomal protein). The assay is classed as biochemical. The following applies: substrate 1-[3H]-farnesyl pyrophosphate 20µM. The procedure: (a) Inhibition of Squalene synthase
In this test, the ability of a compound to prevent the formation of squalene from a radioactive substrate (tritiated farnesyl pyrophosphate) is assessed.
The test compound is incubated at a concentration of 25 micromolar in 200µl of a buffered solution containing potassium phosphate (50mM), MgCl2 (4.95mM), KF (9.9mM), NADPH (0.9mM) and rat liver microsomal protein (20µg). Rat liver microsomes are prepared by the method described in published European Patent Application No. 324,421 and stored in liquid nitrogen prior to assay. Assay vials are kept at 37°C throughout the incubation.
The reaction is started with the addition of the substrate (1-[^3H]-farnesyl pyrophosphate), final concentration 20µM, and stopped after 15 minutes reaction time with the addition of 50µl of 4% KOH. The reaction products are separated from unreacted substrate after application to a C-18 octadecyl lccBond column (Analytichem Int product No. 617101). An aqueous fraction is eluted with 250µl of 0.1M KOH. Squalene is then eluted with 1.0 ml 10% ethylacetate in hexane and radioactivity determined. The difference in radioactivity in the presence and absence of the test compound is used to determine the level of inhibition. […] The IC50 can then be determined from a plot of percentage inhibition against concentration of test compound.
Background: Microsomes from liver hold many membrane-bound enzymes, among them those of drug oxidation.

In the case of `OC1(c2ccc(/C=C/c3cccnc3)cc2)CN2CCC1CC2` (centres unmarked) [Example 2, 3-(4-[(E)-2-(3-pyridyl)vinyl]phenyl)quinuclidin-3-ol], the “reduction in the rate of cholesterol biosynthesis” value in assay [1] is recorded as 72%. The molecule further registered an inhibition at 2.5 µM on Squalene synthase of about 89%.

Usually inhibition stands for the relative decrease from the control value, in per cent. Low readings indicate little suppression, high ones strong suppression.
